One series deals with PD-1/PD-L1 binding. The note with it: read-out: PD-1/PD-L1 inhibitory IC50; cited from earlier work. The text has this:
(§1) With continuous progress of modern separation and analysis techniques, high-throughput screening methods for enzyme inhibitory peptides have emerged as powerful tools in the discovery of bioactive peptides. Recently, the methodologies based on the phage display library, bacteria display library, and peptide fragment of proteins have been applied in screening for PD-L1 inhibitors.

A further series can be described thus: Water-solubility. Format: physicochemical. The note with it: qualitative statement.
Another series deals with CT26 tumor. The settings on record: 2 mg/kg, CT26 tumor-bearing mice; cited from earlier work.
Text: as §1

In series [1] the target is T1, recombinant human PD-L1 (residue 18–239, extracellular domain) (human, UniProt Q9NZQ7 18-239).
T1 construct: Programmed death ligand 1 (PD-L1, B7-H1, CD274), human, residues 18-239, extracellular domain; The limits 18-239 are told for the SPR experiment; No tag is stated; also called programmed death ligand 1; source: bought: Abcam (recombinant, 25 kDa)
The series can be described thus: SPR; Biacore T200, 25 °C; PD-L1 amine-coupled on a CM5 chip to about 5600 RU; peptides injected in PBS-P (1% DMSO) at 30 µL/min, 60 s contact, 60 s dissociation. The settings on record: both partners purified. In general terms: Surface plasmon resonance follows binding to a sensor surface in real time, without labels.

In the next series the target is Tag1-PD-L1 protein (UniProt Q9NZQ7 19-238). The series is described as follows: AlphaScreen or HTRF; Cisbio PD-1/PD-L1 HTRF binding assay kit; competition: analyte with Tag1-PD-L1 and Tag2-PD-1 for 15 min at room temperature, then anti-Tag1-Eu3+ and anti-Tag2-XL665 for 2 h at room temperature. The settings on record: both partners purified.

Where no end group is shown, it is not given here. Bounds are passed on as bounds.

Consider “CKWYRPSEC [cyclic peptide C8, not the ascidian peptide C8]”, for which, on PD-1/PD-L1 binding, the IC50 is < 10 µM.

On to LDVVIHTVTYGDR [C5], for which the water-solubility entry in “Water-solubility” is “poor”. As for NYSKPTDRQYHF [^DPPA-1], in the series with CT26 tumor, the “prolongation of survival time” value is ~50% and the tumor growth entry is reported as “inhibited the tumor growth”.

B1: C5 (peptide)
peptide: LDVVIHTVTYGDR
notes: from the Ciona intestinalis trypsin hydrolysate; written as one molecule; The parent protein is not known; also called peptide C5; source: trypsin hydrolysate of Ciona intestinalis (AUF); synthetic peptide, GuoPing Pharmaceutical (HTRF, SPR)
In general, Kd refers to the constant that tells how readily two partners part at equilibrium. In the case of B1, the Kd in series [1] worked out at 22.9 µM. In the series with Tag1-PD-L1 protein, this molecule showed an IC50 of 33.9 µM.

B2: S2 (peptide)
peptide: VLRDNIQGITKPAIR
notes: from the Styela clava trypsin hydrolysate; candidate protein: Histone H4 (Transparent ascidian); the text says that it exactly matches Histone H4 of Ciona savignyi; written as one molecule; also called peptide S2; source: trypsin hydrolysate of Styela clava (AUF); synthetic peptide, GuoPing Pharmaceutical (HTRF, SPR)
As to B2, in series [1], the Kd was 29.1 µM. The IC50 in the series with Tag1-PD-L1 protein worked out at 113 µM.

The values above are taken from paper PMC12028738 (Marine Drugs, 2025).
